Laboratory results taken from patent US20150253591A1, “DYE COMPOSITION FOR ELECTROWETTING DISPLAY AND ELECTROWETTING DISPLAY DEVICE” (FUJIFILM CORPORATION, priority 2012, published 2015).
Each block holds one compound with its values, some of them ahead of it.

Legend:
Assay type in all cases: physicochemical
[1] = Relative dielectric constant of nonpolar solvent; conditions: 1 kHz, 20° C. and 40% RH
Method: The relative dielectric constant is determined by injecting a nonpolar solvent in a glass cell with a 10-μm cell gap provided with an ITO transparent electrode, and measuring the electrical capacity of the obtained cell using a 2353LCR METER manufactured by NF Corporation (measurement frequency: 1 kHz) at 20° C. and 40% RH.

[2] = Solubility of dye in nonpolar solvent; conditions: for Solubility Dihexyl ether: in dihexyl ether at 25° C. and 0.1 MPa; for Solubility n-Decane: in n-decane at 25° C. and 0.1 MPa
Method: Each of the prepared 20% by mass solutions (dye compositions) was heated at 50° C. and then left standing at room temperature for 12 hours to obtain a supernatant liquid. The amount of the unsolved dye was weighed and the solubility of each pigment in dihexyl ether or n-decane at 25° C. and 0.1 MPa was calculated.

[3] = Low temperature suitability of dye composition; set-up: key: A dye composition was maintained in a liquid state.; B: A dye composition was not maintained in a liquid state, and changed to a solid state; conditions: -41° C. for 12 hours; for Low temperature suitability, Dihexyl ether (present invention): 20% by mass dye in dihexyl ether; for Low temperature suitability, Dipentyl ether (present invention): 20% by mass dye in dipentyl ether; for Low temperature suitability, Decane (comparative): 20% by mass dye in n-decane
Method: Each dye composition was placed in a vial, and the vial was left standing in an ice bath (calcium chloride+ice) at −41° C. for 12 hours. The condition of each dye composition after standing was observed and evaluated according to the following evaluation criteria.
A: A dye composition was maintained in a liquid state.
B: A dye composition was not maintained in a liquid state, and changed to a solid state.

[4] = High temperature suitability of dye composition; conditions: 180° C. for 2 hours without a cap; for High temperature suitability, Dihexyl ether (present invention): 20% by mass dye in dihexyl ether; for High temperature suitability, Dipentyl ether (present invention): 20% by mass dye in dipentyl ether; for High temperature suitability, Decane (comparative): 20% by mass dye in n-decane
Method: Each dye composition was placed in a vial, and the vial was left standing in an oil bath without a cap at 180° C. for 2 hours. The mass of the vial after standing was weighed and evaluated according to the following evaluation criteria.
A: Decrease in the mass of the vial was less than 10%.
B: Decrease in the mass of the vial was 10% or more.

relative dielectric constant ∈r [1]: 2.1
Structure (SMILES): CCCCCCCOCCCCCCC [diheptyl ether]

relative dielectric constant ∈r [1]: 2.1
Structure (SMILES): CCCCCCCCCCCCOCCCCCCCCCCCC [didodecyl ether]

relative dielectric constant ∈r [1]: 2.1
Structure (SMILES): CCCCCCOCCCCCC [dihexyl ether]

relative dielectric constant ∈r [1]: 2.1
Structure (SMILES): CCCCCOCCCCC [dipentyl ether]

Further lines, the compound ahead of its results:

Structure (SMILES): CCCCC(CC)CN(CC(CC)CCCC)c1ccc(/C=C2\C(=O)ON=C2C(C)(C)C)c(C)c1 (stereo not drawn) [Dye P-1]
Solubility Dihexyl ether [2]: 20 or more % by mass | Solubility n-Decane [2]: 20 or more % by mass | Low temperature suitability, Dihexyl ether (present invention) [3]: A | Low temperature suitability, Dipentyl ether (present invention) [3]: A | Low temperature suitability, Decane (comparative) [3]: B | High temperature suitability, Dihexyl ether (present invention) [4]: A (Decrease in the mass of the vial was less than 10%.) | High temperature suitability, Dipentyl ether (present invention) [4]: A (Decrease in the mass of the vial was less than 10%.) | High temperature suitability, Decane (comparative) [4]: B (Decrease in the mass of the vial was 10% or more.)

Structure (SMILES): CCCCC(CC)CN(CC(CC)CCCC)c1ccc(/N=C2/C(C)=Nn3nc(C(C)(C)C)nc32)cc1 (stereo not drawn) [Dye P-2]
Solubility Dihexyl ether [2]: 20 or more % by mass | Solubility n-Decane [2]: 20 or more % by mass | Low temperature suitability, Dihexyl ether (present invention) [3]: A | Low temperature suitability, Dipentyl ether (present invention) [3]: A | Low temperature suitability, Decane (comparative) [3]: B | High temperature suitability, Dihexyl ether (present invention) [4]: A (Decrease in the mass of the vial was less than 10%.) | High temperature suitability, Dipentyl ether (present invention) [4]: A (Decrease in the mass of the vial was less than 10%.) | High temperature suitability, Decane (comparative) [4]: B (Decrease in the mass of the vial was 10% or more.)

Structure (SMILES): C1CCC(OC2CCCCC2)CC1 [dicyclohexyl ether]
relative dielectric constant ∈r [1]: 2.1
